Patent US12558343B2, “Medical use of icaritin” (Lunan Pharmaceutical Group Corporation, priority 2020, dated 2026)
One block for each compound: values may come before it.

What was measured:
[1] = tested on: gastric bleeding caused by thrombolytic drug; parameters: species or system SD rats; conditions: rat, in vivo
Experimental: (§1) An animal model of thromboembolic cerebral ischemia was prepared by blocking a middle cerebral artery with an autologous thrombus combined with a suture occlusion method, and a catheter was indwelled.
24 h after the arterial administration, the rats in each group were anesthetized and dissected. The number of bleeding cases was observed under naked eyes and a light microscope, and a ratio of the number of bleeding cases to the total number was calculated.

gastric injury = tested on: gastric injury; parameters: species or system SD rats; conditions: rat, in vivo
Experimental: as §1
The left lung and gastric antrum were excised, fixed with 100 g/L of a neutral formaldehyde solution, and dehydrated conventionally to be transparent, the dehydrated tissue was dipped with wax and embedded, the embedded tissue was sectioned and stained, and pathological changes were observed under a light microscope. A damage degree was graded according to a degree of tissue congestion, edema and cell degeneration from mild to severe: grade I: 0%-25%, grade II: 26%-50%, grade III: 51%-75%, and grade IV: >75% (bleeding was observed under the microscope).

[2] = tested on: prolonged bleeding time caused by heparin sodium; assay: Tail-cut bleeding time in mice, prolonged by heparin sodium; format: in vivo, ICR mice; conditions: group P, 200 mg/kg i.p. once a day 5 days; heparin sodium 150 U/kg i.v.
Excerpt: 72 ICR mice aged 5-6 weeks, weighing 19-21 g, and half male and half female were selected. The mice were quarantined for 7 days after entering a laboratory and healthy mice were selected as test animals. The mice were weighed on first and last days of quarantine. According to the body weight on the last day of the quarantine, the male and female animals were divided into six groups by a simplified random method, namely, a normal group (C), a model group (V), low-, medium- and high-dose icaritin groups (2, 6, and 18 mg/kg, L, M, H) and a positive control drug group (200 mg/kg of etamsylate, P).
(§2) After 15 min of the modeling, the tails of the mice were cut and bleeding time of each mouse was measured.

[3] = tested on: prolonged bleeding time caused by aspirin; assay: Tail-cut bleeding time in mice, prolonged by aspirin; format: in vivo, ICR mice; conditions: group P, 200 mg/kg i.p. once a day 5 days; aspirin 20 mg/kg i.g.
Experimental: According to the body weight on the last day of the quarantine, the male and female animals were divided into six groups by a simplified random method, namely, a normal group (C), a model group (V), icaritin low-, medium- and high-dose groups (2, 6, and 18 mg/kg, L, M, H) and a positive control drug group (200 mg/kg of etamsylate, P).
as §2

[4] = mouse, in vivo, ip, 200 mg/kg
Experimental: (§7) After the grouping, the mice in the normal group and the model group were intragastrically administrated with 10 ml/kg of an icaritin solvent which was prepared by adding 12 g of hypromellose E5 and 0.1 g of sodium lauryl sulfate into 1 L of water. […] One hour after the last pre-administration, the mice in the model group and each administration group were injected with 150 U/kg of a heparin sodium injection through a tail vein to establish a model, and the mice in the normal group were injected with 10 ml/kg of a sodium chloride injection through a tail vein.
(§8) After the bleeding time was detected, the mice were anesthetized with sodium pentobarbital, blood was collected from an abdominal cardinal vein, and indicators of blood routine examination and four coagulation indicators (prothrombin time, thromboplastin time, thrombin time, and fibrinogen) were detected.

[5] = mouse, in vivo, ip, 200 mg/kg; remark: listed apart in the source
Experimental: as §7, §8

[6] = tested on: hemorrhagic transformation model induced by aspirin combined with cerebral ischemia-reperfusion; assay: Hemorrhagic transformation after cerebral ischemia-reperfusion (MCAO) caused by aspirin, bleeding rate; format: in vivo, ICR mice; conditions: 12 mg/kg i.g. Day 1-3 with aspirin 100 mg/kg; 24 h after MCAO; of 9 (icaritin) or 8 (icariin) animals
Experimental: (§3) 5-week-old ICR male mice were fed to 6-week-old and divided into a control group, a model group, an icaritin-3 mg/kg group, an icaritin-6 mg/kg group, an icaritin-12 mg/kg group, and an icariin-12 mg/kg group according to body weight. From day 1 to day 3 after the grouping, the mice in each icaritin group were separately intragastrically administrated with 3, 6, and 12 mg/kg of icaritin and the mice in the icariin group was intragastrically administrated with 12 mg/kg of icariin once a day, and the mice in other groups were intragastrically administrated with a corresponding vehicle; and except the control group, the mice in other groups were intragastrically administrated with aspirin (100 mg/kg) or clopidogrel (15 mg/kg) once a day at a volume of 10 mL/kg.
(§4) On day 3, 10 min after the administration, the mice were anesthetized by intraperitoneal injection of 70 mg/kg of pentobarbital sodium and subjected to a cerebral ischemia-reperfusion (middle cerebral artery occlusion, MCAO) surgery with ischemia for 1 h and reperfusion for 23 h.
(§5) 24 h after the surgery was an end point of the experiment.
(§6) Bleeding rate: the mice were anesthetized by intraperitoneal injection of 70 mg/kg of pentobarbital sodium, a brain tissue was taken out, cerebral hemorrhage was recorded and a bleeding rate of the mice in each group was calculated. Cerebral hemorrhage rate %=number of animals with cerebral hemorrhage/number of surviving animals in each group×100.

[7] = tested on: hemorrhagic transformation model induced by clopidogrel combined with cerebral ischemia-reperfusion; assay: Hemorrhagic transformation after cerebral ischemia-reperfusion (MCAO) caused by clopidogrel, bleeding rate; format: in vivo, ICR mice; conditions: 12 mg/kg i.g. Day 1-3 with clopidogrel 15 mg/kg; 24 h after MCAO; of 8 (icaritin) or 7 (icariin) animals
Experimental: as §3, §4, §5, §6

[8] = tested on: hemorrhagic transformation induced by thrombolytic drug; assay: Rat middle cerebral artery autologous thrombosis with rt-PA thrombolysis, cerebral hemorrhage volume; format: in vivo
Experimental: A rat model of middle cerebral artery autologous thrombosis was prepared according to the following method: rats were anesthetized by intraperitoneal injection of 10% […] at 350 mg/kg body weight and fixed on an operating table in a supine position, skin of the rats was routinely disinfected according to aseptic operation procedures, and draping was performed. An incision about 3.0-cm-long was taken from the skin in the middle of the neck, the muscle and the subcutaneous tissue were bluntly separated, the right bilateral common carotid arteries, external carotid arteries, and internal carotid arteries were separated to avoid damage to the vagus nerve, the internal carotid arteries were separated to the skull base, and the external carotid arteries were ligated at the bifurcation of the bilateral common carotid arteries. 0.1 ml of arterial blood from the femoral artery of the rat was taken using a 1-ml syringe, 4 U of thrombin was added, the materials were uniformly mixed and stood for 8-10 min, when the blood was coagulated, and the coagulated blood was injected into a 24 G venous indwelling needle to prepare a thrombus about 1-cm-long followed by a syringe containing 1-2 ml of normal saline. […]
Another 4 healthy rats were taken, sacrificed by excessive anesthesia, and subjected to cardiac perfusion. […] cerebral hemisphere tissues were taken, 0, 0.5, 1, 2, 4, 8, 16, 32, and 50 μL of arterial blood of male SD rats was successively added to each hemisphere tissue, PBS at a pH of 7.4 was added to a total volume of 3 ml, the tissue was homogenized for 30 s and ultrasonically lysed, and centrifugation was performed at 13,000 r/min and 4° C. for 30 min 0.8 mL of Drabkin's reagent was mixed with 0.2 mL of a supernatant of each sample, an obtained mixture was placed in a dark place at a room temperature for 10 min, and an absorbance at a wavelength of 540 nm (absorbance of sample not containing blood was set to 0) was measured. The absorbance was set as a Y-axis and the blood volume in each sample was set as an X-axis to draw a standard curve. […]

cerebral infarction = assay: Same rt-PA thrombolysis model, cerebral infarction volume (rate); format: in vivo, rats; conditions: rt-PA 5 mg/kg alone, compared with the model group
Experimental: An incision about 3.0-cm-long was taken from the skin in the middle of the neck, the muscle and the subcutaneous tissue were bluntly separated, the right bilateral common carotid arteries, external carotid arteries, and internal carotid arteries were separated to avoid damage to the vagus nerve, the internal carotid arteries were separated to the skull base, and the external carotid arteries were ligated at the bifurcation of the bilateral common carotid arteries. 0.1 ml of arterial blood from the femoral artery of the rat was taken using a 1-ml syringe, 4 U of thrombin was added, the materials were uniformly mixed and stood for 8-10 min, when the blood was coagulated, and the coagulated blood was injected into a 24 G venous indwelling needle to prepare a thrombus about 1-cm-long followed by a syringe containing 1-2 ml of normal saline. […] Infarct volume=non-ischemic side hemisphere volume-ischemic side hemisphere non-infarct area volume, and an infarct volume ratio was expressed as the percentage (%) of the infarct volume to the non-ischemic side hemisphere volume.

myocardial infarction [9] = assay: Isoproterenol myocardial infarction rats, electrocardiogram; format: in vivo, Wistar male rats; conditions: rt-PA 5 mg/kg femoral vein, compared with the model group
Experimental: 60 Wistar male rats (SPF grade), weighing 220-260 g, were randomly divided into a myocardial infarction modeling group and a control group according to a random number table, with 12 rats in the control group and 48 rats in the model group. The rats were conventionally fed in separate cages with 4 rats per cage. After a normal electrocardiogram was traced, the rats in the myocardial infarction modeling group were subcutaneously injected with 150 mg·kg^−1·d^−1 of isoproterenol (ISO) in a volume of 0.2 mL/100 g every other 24 h for 2 consecutive days. The rats in the control group were subcutaneously injected with a same amount (0.2 mL/100 g) of normal saline according the same method for 2 consecutive days. The electrocardiogram was monitored 24 h after the second subcutaneous injection of the isoproterenol. […] The ST segment elevation of greater than 0.2 mV in lead II or the formation of Q wave became the standard for myocardial infarction. […]
The rats were anesthetized by inhalation of ether. […] The electrocardiogram of the rat was monitored using the limb leads according to right upper limb-red, left upper limb-yellow, left lower limb-green, and right lower limb-black, an electrocardiograph was turned on at a paper speed of 50 mm/s and a voltage of 1 mv, and the animals were returned to the cages after the electrocardiogram.

myocardial infarction [10] = assay: Isoproterenol myocardial infarction rats, heart weight / body weight; format: in vivo, Wistar male rats; conditions: rt-PA 5 mg/kg femoral vein
Experimental: 60 Wistar male rats (SPF grade), weighing 220-260 g, were randomly divided into a myocardial infarction modeling group and a control group according to a random number table, with 12 rats in the control group and 48 rats in the model group. The rats were conventionally fed in separate cages with 4 rats per cage. After a normal electrocardiogram was traced, the rats in the myocardial infarction modeling group were subcutaneously injected with 150 mg·kg^−1·d^−1 of isoproterenol (ISO) in a volume of 0.2 mL/100 g every other 24 h for 2 consecutive days. The rats in the control group were subcutaneously injected with a same amount (0.2 mL/100 g) of normal saline according the same method for 2 consecutive days. The electrocardiogram was monitored 24 h after the second subcutaneous injection of the isoproterenol. […] The ST segment elevation of greater than 0.2 mV in lead II or the formation of Q wave became the standard for myocardial infarction.
A total of 36 modeled rats were selected from the modeling group and randomly divided into a model group, a thrombolysis group and a thrombolytic drug+icaritin group according to the random number table. […]

Compound: Urokinase
Bleeding rate [1]: 68.8^$ $ % | Number of bleeding animals [1]: 11 | Incidence of gastric injury (gastric injury): 100 ^$ $ % | Number of animals, gastric damage grade I (gastric injury): 1 | Number of animals, gastric damage grade II (gastric injury): 2 | Number of animals, gastric damage grade III (gastric injury): 2 | Number of animals, gastric damage grade IV (gastric injury): 11 | Total number of animals with gastric injury (gastric injury): 16

Number of erythrocytes [4]: 6.998 ± 0.871 10^12/L | Number of leukocytes [4]: 1.903 ± 0.221 10^9/L | Number of platelets [4]: 1097 ± 114 10^9/L | Fibrinogen [5]: 1.86 ± 0.40 g/L | Prothrombin time [5]: 10.03 ± 1.24 s | Thrombin time [5]: 24.34 ± 1.37 s | Thromboplastin time [5]: 22.78 ± 2.34 s
Compound: O=S(=O)(O)c1cc(O)ccc1O [Etamsylate, reference compound]
Bleeding time [2]: 21.4 ± 6.7^$ min | Bleeding time [3]: 26.4 ± 6.4^$ min

Compound: COc1ccc(-c2oc3c(CC=C(C)C)c(O[C@@H]4O[C@H](CO)[C@@H](O)[C@H](O)[C@H]4O)cc(O)c3c(=O)c2O[C@@H]2O[C@@H](C)[C@H](O)[C@@H](O)[C@H]2O)cc1 [Icariin, reference compound]
Number of animals with cerebral hemorrhage [6]: 6 | Number of animals with cerebral hemorrhage [7]: 5

Compound: rt-PA: alteplase (rt-PA), thrombolytic drug, 5 mg/kg via the femoral vein
Cerebral hemorrhage volume ([8]; rt-PA 5 mg/kg femoral vein 3 h after modeling, 3 h after thrombolysis): 6.43 ± 0.89 | Cerebral hemorrhage volume ([8]; rt-PA 5 mg/kg femoral vein, 6 h after thrombolysis): 9.78 ± 1.01 | Cerebral hemorrhage volume ([8]; rt-PA 5 mg/kg femoral vein, 24 h after thrombolysis): 15.32 ± 2.01 | Pale white area of the infarcted area (cerebral infarction): significantly decreased | Pathological Q waves in electrocardiogram (myocardial infarction [9]): disappeared | Whole heart weight (myocardial infarction [10]): 702.3 ± 10.8 mg | Heart weight/body weight (myocardial infarction [10]; model group 4.0, control 2.6): 2.8^$ $ mg/g
